Read-outs that look alike come from different tables or passages of the source.
Legend:
Assay type in all cases: cell-based
[1] = tested on: HIV-1LAI S117T; experiment: p24 reduction assay in MT-2 cells, S117T
Experimental: (§1) Cells. MT-2 cells (AIDS Research and Reference Reagent Program, National Institute of Allergy and Infectious Diseases, National Institutes of Health) were maintained in RPMI 1640 supplemented with 10% fetal bovine serum (FBS; JRH Biosciences, Lenexa, Kans.), 10 mM HEPES buffer, 50 IU/ml penicillin and 50 μg/ml streptomycin.
(§2) Antiviral Susceptibility Assays. The antiviral activity of each compound was determined by inoculating MT-2 cells with HIV-1LAI at a multiplicity of infection (MOI) of 0.01 TCID50/cell, followed by incubation in the presence of three-fold serial drug dilutions (3 wells per dilution) (see Mellors, et. al., Antimicrob. Agents Chemother. 39:1087-1092). Five or seven days after infection, culture supernatants were harvested, lysed with 0.5% triton-X 100 and assayed for p24 antigen concentration using a commercial ELISA assay (DuPont, NEN Products, Wilmington, Del.). The antiviral activity of the compounds is expressed as the IC50, which is the concentration required to inhibit 50% of p24 antigen production. The fold-resistance of a test virus is calculated by dividing the IC50 of the test virus by the IC50 of the HIV-1LAI control virus.
(§3) Generation of Mutant Recombinant HIV-1. HIV-1 containing the desired mutations were generated by oligonucleotide directed mutagenesis (Altered Sites II, Promega) as previously described (Mellors, et. al., Molecular Pharm. 41:446-451). After mutagenesis, mutant RT was subcloned into the pxxHIV-1LAI cloning vector using the silent XmaI and XbaI restriction sites located at the 5′ and 3′ ends of RT. Clones were DNA sequenced to verify the presence of the desired mutation(s) and electroporated into MT-2 cells as described above to generate infectious mutant recombinant HIV-1.
(§4) Mutant RT was generated via oligonucleotide-directed mutagenesis and ligated into the pXXHIV-1LAI cloning vector. Cloning was facilitated by the presence of two silent restriction sites at the 5′ and 3′ ends (Xma1 and Xba1, respectively) of pXXHIV-1LAI RT. Infectious mutant recombinant HIV-1 was generated by electroporating MT-2 cells with mutated pXXHIV-1LAI clones. The presence of the desired mutations was verified by DNA sequencing.
DNA sequencing identified two mutations in RT: S117T and L214F.
(§5) Recombinant viruses containing the mutations selected by invention compounds were also evaluated for their susceptibility to AZT, as shown in Table 8.

[2] = tested on: HIV-1LAI W88G/L214F; experiment: p24 reduction assay in MT-2 cells, W88G/L214F
Experimental: as §1, §2, §3, §4
EB-PFA resistant virus was selected a second time after 15 passages. This virus also contained the mutations W88G and L214F.
as §5

[3] = tested on: HIV-1LAI L74V; experiment: p24 reduction assay in MT-2 cells, L74V; settings: for EC50: L74V; for Fold-resistance: L74V relative to wild type virus
Experimental: as §1, §2, §3, §4
(§6) The multi-drug resistant HIV-1 strains, 11163p1 and 11588p1, are human clinical isolates having the RT mutations indicated. HIV-1 strains treated with the lipid analogs of the present invention include wild type, e.g., xxLAI, and the like, single mutation, e.g., xxLAI MI 84V (resistant to 3TC), xxLAI L74V (resistant to ddI and ddC), xxLAI K65R (resistant to ddI, ddC, DAPD, DXG, tenofovir, and adefovir), xxLAI T215Y (resistant to AZT), and the like, double mutations, e.g., xxLAI M41 L/T215Y (resistant to AZT), xxLAI MI 84V/T215Y (resistant to 3TC and AZT), and the like, and multiple mutations, e.g., xxLAI 4XAZT ((D67N, K70R, T215Y, K219Q) resistant to AZT)), xxLAI 4XAZT/M184V ((D67N, K70R, M 184V, T215Y, K219Q) resistant to AZT and 3TC), xxLAI M5456-12 (AZT+NNRTI resistant: D67N, K70R, K103N, T215Y), xxLAI G2-3g (AZT/3TC co-resistant: M41L, D67N, M184V, H208Y, L210W, R211K, L214F, T215Y, 1293V, E297A), 11163 (multinucleoside resistant virsus: M41L, A62V, V751, F77L, K103N, F116Y, Q151M, Y181C, M184V), 11588 (multinucleoside resistant virsus: A62V, K65R, K70R, V751, F77L, F116Y, Q151M, M184V, K219Q), and the like.

[4] = tested on: HIV-1LAI M184V/T215Y; experiment: p24 reduction assay in MT-2 cells, M184V/T215Y; settings: Table 1, MOI 0.01
Experimental: as §1, §2, §3
Mutant RT was generated via oligonucleotide-directed mutagenesis and ligated into the pXXHIV-1LAI cloning vector. Cloning was facilitated by the presence of two silent restriction sites at the 5′ and 3′ ends (Xma1 and Xba1, respectively) of pXXHIV-1LAI RT. […]

[5] = tested on: HIV-1LAI 4XAZT/K103N; experiment: p24 reduction assay in MT-2 cells, 4XAZT/K103N; settings: for Fold-resistance: 4XAZT/K103N relative to wild type virus
Experimental: as §1, §2, §3, §4, §6

[6] = tested on: multidrug-resistant HIV-1 clinical isolate 11163p1; experiment: p24 reduction assay in MT-2 cells, 11163p1
Experimental: as §1
as §2, with “[…],” for “was determined by inoculating MT-2 cells with HIV-1LAI at a multiplicity of infection (MOI) of 0.01 TCID50/cell,”
The multi-drug resistant HIV-1 strains, 11163p1 and 11588p1, are human clinical isolates having the RT mutations indicated. […]

[7] = tested on: multidrug-resistant HIV-1 clinical isolate 11588p1; experiment: p24 reduction assay in MT-2 cells, 11588p1
Experimental: as §1
as §2, with “[…],” for “was determined by inoculating MT-2 cells with HIV-1LAI at a multiplicity of infection (MOI) of 0.01 TCID50/cell,”
as §6

[8] = tested on: HIV-1LAI W88S; experiment: p24 reduction assay in MT-2 cells, W88S; settings: Table 7; for EC50: W88S; for Fold-resistance: W88S relative to wild type virus
Experimental: as §1, §2, §3, §4
Invention compounds were also evaluated against a panel of HIV-1LAI derived recombinants resistant to PFA and the PFA invention compounds, as shown in Table 7.

[9] = Table 1, AZT/K103N, MOI 0.01, read-out: EC50
[10] = Table 5, 4XAZT/K103N, mean ± SD, read-out: EC50
[11] = Human immunodeficiency virus 1, MT2, Table 2, MOI 0.05

SMILES | EC50 ([3]; Table 1, MOI 0.01) | Fold-resistance ([3]; Table 3) | EC50 ([3]; Table 3, mean ± SD) | EC50 [4] | EC50 [5, 9] | Fold-resistance ([5]; Table 5) | EC50 [5, 10] | EC50 ([6]; Table 2, MOI 0.05) | EC50 ([7]; Table 2, MOI 0.05) | EC50 [8] | Fold-resistance [8] | also measured
Cc1cn([C@H]2C[C@H](N=[N+]=[N-])[C@@H](CO)O2)c(=O)[nH]c1=O [AZT, 3′-Azido-3′-deoxythymidine] |  |  |  |  |  |  |  |  |  |  |  | EC50 ([1]; Human immunodeficiency virus 1, MT2, Table 8, S117T, read-out: AZT EC50): 17 ± 7 nM; Fold resistance ([1]; Table 8, S117T relative to wild type virus): 0.8; EC50 ([2]; Human immunodeficiency virus 1, MT2, Table 8, W88G/L214F, read-out: AZT EC50): 15 ± 15 nM; Fold resistance ([2]; Table 8, W88G/L214F relative to wild type virus): 0.7
CCCCCCCCCCCCCCCCCCOC[C@@H](O)COP(=O)(O)C(=O)O [B-PFA, 1-O-octadecyl-sn-glycero-3-PFA] | 4250 nM | (2.5) | 4450 ± 2260 nM | 1490 nM | 2720 nM | (2.2) | 3870 ± 2360 nM | 3480 nM | 9310 nM | 20700 nM | 1.20 (11.9) | 
CCCCCCCCCCCCCCCCCCOC[C@H](COP(=O)(O)C(=O)O)OCC [EB-PFA, 1-O-octadecyl-2-O-ethyl-sn-glycero-3-PFA] | 1340 nM | (1.9) | 1210 ± 850 nM | 480 nM | 800 nM | (1.4) | 880 ± 140 nM | 1230 nM | 730 nM | 2390 nM | 0.15 (2.7) | Fold resistance ([2]; Example 6, recombinant virus W88G plus L214F): 15.5 fold; EC50 ([2]; Example 6, recombinant virus W88G plus L214F, read-out: EC50): 9100 nM
CCCCCCCCCCCCCCCCCCOC[C@H](COP(=O)(O)C(=O)O)OC [MB-PFA, 1-O-octadecyl-2-O-methyl-sn-glycero-3-PFA] | 520 nM | (1.8) | 880 ± 630 nM | 540 nM |  | (1.2) | 600 ± 380 nM |  | 1160 nM | 2490 nM | 0.12 (3.2) | 
O=C(O)P(=O)(O)O [PFA, phosphonoformate, reference compound] |  | (1.9) |  |  |  | (1.1) |  |  |  |  |  | EC50 ([3]; Human immunodeficiency virus 1, MT2, Table 1, MOI 0.01): 37400 nM; EC50 ([3]; Human immunodeficiency virus 1, MT2, Table 3, mean ± SD): 32700 ± 9000 nM; EC50 ([5]; Human immunodeficiency virus 1, MT2, Table 1, AZT/K103N, MOI 0.01): 18600 nM; EC50 ([5]; Human immunodeficiency virus 1, MT2, Table 5, 4XAZT/K103N, mean ± SD, read-out: EC50): 19200 ± 8850 nM; EC50 [6, 11]: 24400 nM; EC50 [7, 11]: 23500 nM; EC50 ([8]; Human immunodeficiency virus 1, MT2): 67100 nM; Fold resistance ([1]; {}): 4.7 fold

From patent publication US20030207843A1, “Treatment of drug-resistant human immunodeficiency virus infection” (priority 1999, published 2003)
